Measured values as given in ChEMBL document CHEMBL1909046, “DrugMatrix in vitro pharmacology data”.

How the values were obtained:
[1] = DRUGMATRIX: Potassium Channel [KATP] radioligand binding (ligand: [3H] Glyburide); type: cell membranes, Membrane; details: hit-t15; Not Active = under 50% inhibition at 10 µM
[2] = target: T1, 3-hydroxy-3-methylglutaryl-coenzyme A reductase (Homo sapiens, UniProt P04035); parameters: species or system Escherichia coli;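 note: enzyme inhibition assay of HMG-CoA reductase using radiolabeled [14C]HMG-CoA as substrate; in other assays of this panel Not Active means under 50% inhibition at 10 µM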
T1 sequence (P04035 whole entry): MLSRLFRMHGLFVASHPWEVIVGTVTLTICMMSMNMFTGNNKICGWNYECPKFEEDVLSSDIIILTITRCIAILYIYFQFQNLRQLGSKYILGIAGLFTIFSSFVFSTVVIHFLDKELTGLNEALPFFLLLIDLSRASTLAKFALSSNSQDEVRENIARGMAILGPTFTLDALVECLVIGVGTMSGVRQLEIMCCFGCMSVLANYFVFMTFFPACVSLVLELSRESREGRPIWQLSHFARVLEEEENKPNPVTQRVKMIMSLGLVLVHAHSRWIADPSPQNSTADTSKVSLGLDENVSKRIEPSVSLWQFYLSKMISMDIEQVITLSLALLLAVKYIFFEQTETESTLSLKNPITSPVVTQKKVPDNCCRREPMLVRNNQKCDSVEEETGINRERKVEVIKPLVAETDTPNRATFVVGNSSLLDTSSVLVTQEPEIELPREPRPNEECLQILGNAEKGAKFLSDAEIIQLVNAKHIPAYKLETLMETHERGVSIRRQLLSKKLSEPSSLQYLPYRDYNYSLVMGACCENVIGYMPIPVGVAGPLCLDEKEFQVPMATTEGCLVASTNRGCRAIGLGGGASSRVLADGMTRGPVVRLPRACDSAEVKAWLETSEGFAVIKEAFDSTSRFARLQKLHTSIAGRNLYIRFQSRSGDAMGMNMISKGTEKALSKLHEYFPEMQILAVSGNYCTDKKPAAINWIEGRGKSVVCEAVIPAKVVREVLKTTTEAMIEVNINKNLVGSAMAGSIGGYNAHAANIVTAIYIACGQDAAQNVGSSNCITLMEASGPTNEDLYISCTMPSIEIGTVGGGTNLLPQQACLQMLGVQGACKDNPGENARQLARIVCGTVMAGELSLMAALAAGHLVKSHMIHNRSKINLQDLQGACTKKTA

[3] = DRUGMATRIX: Phosphodiesterase PDE4 enzyme inhibition (substrate: [3H]cAMP + cAMP); details: u-937, Not Active = under 50% inhibition at 10 µM
[4] = DRUGMATRIX: GABAA, Chloride Channel, TBOB radioligand binding (ligand: [3H] TBOB); type: cell membranes, Rattus norvegicus, Wistar, Cerebral cortex, Membrane; details: Not Active = under 50% inhibition at 10 µM
[5] = target: Tyrosine-protein kinase Fyn (Homo sapiens, UniProt P06241); experiment: biochemical; type: cell-based, Insect cells;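 note: enzymatic inhibition of Fyn kinase activity measured with Poly(Glu:Tyr) as the phosphorylation substrate; in other assays of this panel Not Active means under 50% inhibition at 10 µM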
Tyrosine-protein kinase Fyn, sequence (P06241 whole entry): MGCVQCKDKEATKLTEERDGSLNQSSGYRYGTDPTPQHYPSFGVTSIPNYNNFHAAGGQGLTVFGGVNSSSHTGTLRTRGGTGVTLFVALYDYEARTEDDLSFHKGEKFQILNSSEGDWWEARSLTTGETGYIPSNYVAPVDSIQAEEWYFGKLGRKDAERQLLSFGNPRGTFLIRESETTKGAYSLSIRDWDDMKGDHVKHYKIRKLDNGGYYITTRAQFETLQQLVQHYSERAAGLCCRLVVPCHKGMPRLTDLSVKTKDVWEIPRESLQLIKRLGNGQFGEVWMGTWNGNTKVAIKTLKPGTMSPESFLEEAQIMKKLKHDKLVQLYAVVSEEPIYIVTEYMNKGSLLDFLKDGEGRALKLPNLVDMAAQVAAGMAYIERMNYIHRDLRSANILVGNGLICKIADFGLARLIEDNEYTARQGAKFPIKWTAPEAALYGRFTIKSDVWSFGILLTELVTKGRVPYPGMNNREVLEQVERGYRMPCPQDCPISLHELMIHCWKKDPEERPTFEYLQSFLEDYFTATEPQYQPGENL

[6] = target: Sodium-dependent dopamine transporter (Homo sapiens, UniProt Q01959); experiment: DRUGMATRIX: Dopamine Transporter radioligand binding (ligand: [125I] RTI-55); type: cell membranes, CHO-K1, Membrane; details: cho-k1; Not Active = under 50% inhibition at 10 µM
Sodium-dependent dopamine transporter, sequence (Q01959 whole entry): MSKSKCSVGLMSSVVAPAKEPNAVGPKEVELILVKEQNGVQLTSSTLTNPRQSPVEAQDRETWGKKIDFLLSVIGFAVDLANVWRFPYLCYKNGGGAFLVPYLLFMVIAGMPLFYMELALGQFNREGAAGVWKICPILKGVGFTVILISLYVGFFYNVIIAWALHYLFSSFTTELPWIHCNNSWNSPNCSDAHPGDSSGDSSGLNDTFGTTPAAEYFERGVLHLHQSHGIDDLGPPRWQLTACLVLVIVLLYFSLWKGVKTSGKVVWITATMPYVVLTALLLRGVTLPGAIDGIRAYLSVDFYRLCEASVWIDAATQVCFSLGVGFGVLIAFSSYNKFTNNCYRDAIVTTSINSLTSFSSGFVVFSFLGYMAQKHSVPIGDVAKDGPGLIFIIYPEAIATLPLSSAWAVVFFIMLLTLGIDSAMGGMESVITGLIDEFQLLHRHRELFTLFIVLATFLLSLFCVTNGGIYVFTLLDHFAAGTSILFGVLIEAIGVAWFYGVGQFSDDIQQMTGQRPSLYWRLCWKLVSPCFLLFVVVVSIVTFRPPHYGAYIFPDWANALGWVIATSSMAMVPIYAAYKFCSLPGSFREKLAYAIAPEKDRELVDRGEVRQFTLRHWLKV

[7] = DRUGMATRIX: Interleukin IL-1 radioligand binding (ligand: [125I] interleukin 1beta); type: cell membranes, Membrane; details: nih3t3; Not Active = under 50% inhibition at 10 µM

SMILES | IC50 [1] | Ki [1] | IC50 [2] | IC50 [3] | Ki [3] | IC50 [4] | Ki [4] | IC50 ([5]; insect cells) | IC50 [6] | IC50 [7] | Ki [7] | IC50 ([5]; read-out: IC50) [µM] | IC50 ([2]; read-out: IC50) [µM] | IC50 ([3]; read-out: IC50) [µM]
C[N+]1(C)[C@@H]2C[C@@H](OC(=O)[C@H](CO)c3ccccc3)C[C@H]1[C@@H]1O[C@@H]12.[Br-] [METHSCOPOLAMINE BROMIDE] | Not Active | Not Active | Not Active | Not Active | Not Active | Not Active | Not Active | Not Active | Not Active | Not Active | Not Active |  |  | 
CC[C@H](C)[C@@H](CO[C@@H](Cc1ccccc1)C(=O)N[C@@H](CCS(C)(=O)=O)C(=O)OC(C)C)NC[C@@H](N)CS | Not Active | Not Active | Not Active | Not Active | Not Active | Not Active | Not Active |  | Not Active | Not Active | Not Active | 0.813 |  | 
CCN1CCCC1CNC(=O)c1cc(S(N)(=O)=O)ccc1OC (stereo not drawn) [SULPIRIDE] | Not Active | Not Active | Not Active | Not Active | Not Active | Not Active | Not Active | Not Active | Not Active | Not Active | Not Active |  |  | 
CC[C@H](C)C(=O)O[C@H]1CCC=C2C=C[C@H](C)[C@H](CC[C@@H]3C[C@@H](O)CC(=O)O3)[C@H]21 [MEVASTATIN] | Not Active | Not Active |  | Not Active | Not Active | Not Active | Not Active | Not Active | Not Active | Not Active | Not Active |  | 0.119 | 
C[C@]12CCC(=O)C[C@@H]1CC[C@@H]1[C@@H]2CC[C@]2(C)[C@@H](O)CC[C@@H]12 [STANOLONE] | Not Active | Not Active | Not Active | Not Active | Not Active | Not Active | Not Active | Not Active | Not Active | Not Active | Not Active |  |  | 
CC(N)C12CC3CC(CC(C3)C1)C2 (stereo not drawn) [RIMANTADINE] | Not Active | Not Active | Not Active | Not Active | Not Active | Not Active | Not Active | Not Active | Not Active | Not Active | Not Active |  |  | 
Cc1cccc(C)c1NC(=O)C(C)N (stereo not drawn) [TOCAINIDE] | Not Active | Not Active | Not Active | Not Active | Not Active | Not Active | Not Active | Not Active | Not Active | Not Active | Not Active |  |  | 
CCN(CC)N=O [N-NITROSODIETHYLAMINE] | Not Active | Not Active | Not Active | Not Active | Not Active | Not Active | Not Active | Not Active | Not Active | Not Active | Not Active |  |  | 
CCN(CC)CCNC(=O)c1cc(Cl)c(N)cc1OC [METOCLOPRAMIDE] | Not Active | Not Active | Not Active | Not Active | Not Active | Not Active | Not Active | Not Active | Not Active | Not Active | Not Active |  |  | 
Cc1ccc(Cl)c(Nc2ccccc2C(=O)O)c1Cl [MECLOFENAMIC ACID] | Not Active | Not Active | Not Active | Not Active | Not Active | Not Active | Not Active | Not Active | Not Active | Not Active | Not Active |  |  | 
CO[C@@]12[C@H](COC(N)=O)C3=C(C(=O)C(C)=C(N)C3=O)N1C[C@@H]1N[C@@H]12 [MITOMYCIN] | Not Active | Not Active | Not Active | Not Active | Not Active | Not Active | Not Active | Not Active | Not Active | Not Active | Not Active |  |  | 
Cc1[nH]c(=O)c(C#N)cc1-c1ccncc1 [MILRINONE] | Not Active | Not Active | Not Active | Not Active | Not Active | Not Active | Not Active | Not Active | Not Active | Not Active | Not Active |  |  | 
O=[As][O-].[Na+] [SODIUM ARSENITE] | Not Active | Not Active | Not Active | Not Active | Not Active | Not Active | Not Active | Not Active | Not Active | Not Active | Not Active |  |  | 
COC(=O)Nc1nc2ccc(C(=O)c3ccccc3)cc2[nH]1 [MEBENDAZOLE] | Not Active | Not Active | Not Active | Not Active | Not Active | Not Active | Not Active | Not Active | Not Active | Not Active | Not Active |  |  | 
CCOC(=O)C1=C(C)NC(C)=C(C(=O)OCC)C1c1ccccc1/C=C/C(=O)OC(C)(C)C [LACIDIPINE] | Not Active | Not Active | Not Active | Not Active | Not Active | Not Active | Not Active | Not Active | Not Active | Not Active | Not Active |  |  | 
O=C(OC[C@H]1O[C@@H](OC(=O)c2cc(O)c(O)c(OC(=O)c3cc(O)c(O)c(O)c3)c2)[C@H](OC(=O)c2cc(O)c(O)c(OC(=O)c3cc(O)c(O)c(O)c3)c2)[C@@H](OC(=O)c2cc(O)c(O)c(OC(=O)c3cc(O)c(O)c(O)c3)c2)[C@@H]1OC(=O)c1cc(O)c(O)c(OC(=O)c2cc(O)c(O)c(O)c2)c1)c1cc(O)c(O)c(OC(=O)c2cc(O)c(O)c(O)c2)c1 [TANNIC ACID] | Not Active | Not Active |  |  |  | Not Active | Not Active |  | Not Active | Not Active | Not Active | 0.022 | 3.13 | 1.04
CC#C[C@]1(O)CC[C@H]2[C@@H]3CCC4=CC(=O)CCC4=C3[C@@H](c3ccc(N(C)C)cc3)C[C@@]21C [MIFEPRISTONE] | Not Active | Not Active | Not Active | Not Active | Not Active | Not Active | Not Active |  | Not Active | Not Active | Not Active | 21.4 |  | 
CC(O)C(=O)O (stereo not drawn) [LACTIC ACID] | Not Active | Not Active | Not Active | Not Active | Not Active | Not Active | Not Active | Not Active | Not Active | Not Active | Not Active |  |  | 
Cc1ccnc(NS(=O)(=O)c2ccc(N)cc2)n1 [SULFAMERAZINE] | Not Active | Not Active | Not Active | Not Active | Not Active | Not Active | Not Active | Not Active | Not Active | Not Active | Not Active |  |  | 
